These results are taken from ChEMBL document CHEMBL1143638, “Pyrazolopyridinones as functionally selective GABAA ligands” (Bioorg Med Chem Lett, 2005).

The target of test [1] is T1, GABA-A receptor; alpha-1/beta-3/gamma-2 (Homo sapiens, UniProt P14867+P18507+P28472).
T1 sequence (P14867 whole entry): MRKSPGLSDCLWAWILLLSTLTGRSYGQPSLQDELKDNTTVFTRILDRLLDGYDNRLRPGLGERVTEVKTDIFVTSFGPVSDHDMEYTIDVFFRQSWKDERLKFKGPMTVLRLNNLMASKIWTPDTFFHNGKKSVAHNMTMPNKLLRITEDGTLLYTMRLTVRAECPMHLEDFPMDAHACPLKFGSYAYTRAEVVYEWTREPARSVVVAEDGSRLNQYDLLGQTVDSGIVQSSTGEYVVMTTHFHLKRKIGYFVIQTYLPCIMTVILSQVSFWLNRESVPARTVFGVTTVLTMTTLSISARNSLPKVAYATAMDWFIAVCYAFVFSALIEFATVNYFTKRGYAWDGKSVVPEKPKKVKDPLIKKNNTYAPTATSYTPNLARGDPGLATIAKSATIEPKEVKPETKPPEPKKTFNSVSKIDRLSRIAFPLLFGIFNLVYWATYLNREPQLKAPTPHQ
T1 sequence (P18507 whole entry): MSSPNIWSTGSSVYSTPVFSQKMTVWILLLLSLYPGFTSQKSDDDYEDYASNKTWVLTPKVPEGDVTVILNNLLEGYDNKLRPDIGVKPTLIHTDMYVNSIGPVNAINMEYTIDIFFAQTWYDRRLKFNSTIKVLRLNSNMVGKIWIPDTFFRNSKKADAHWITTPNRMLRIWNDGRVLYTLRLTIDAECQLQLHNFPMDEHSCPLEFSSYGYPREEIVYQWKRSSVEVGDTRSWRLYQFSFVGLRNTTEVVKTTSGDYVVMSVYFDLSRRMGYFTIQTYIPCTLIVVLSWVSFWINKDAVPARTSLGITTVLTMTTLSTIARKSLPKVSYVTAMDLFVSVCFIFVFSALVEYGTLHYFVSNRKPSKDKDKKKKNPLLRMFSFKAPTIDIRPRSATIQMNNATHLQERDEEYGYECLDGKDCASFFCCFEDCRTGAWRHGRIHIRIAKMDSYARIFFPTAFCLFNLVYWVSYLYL
T1 sequence (P28472 whole entry): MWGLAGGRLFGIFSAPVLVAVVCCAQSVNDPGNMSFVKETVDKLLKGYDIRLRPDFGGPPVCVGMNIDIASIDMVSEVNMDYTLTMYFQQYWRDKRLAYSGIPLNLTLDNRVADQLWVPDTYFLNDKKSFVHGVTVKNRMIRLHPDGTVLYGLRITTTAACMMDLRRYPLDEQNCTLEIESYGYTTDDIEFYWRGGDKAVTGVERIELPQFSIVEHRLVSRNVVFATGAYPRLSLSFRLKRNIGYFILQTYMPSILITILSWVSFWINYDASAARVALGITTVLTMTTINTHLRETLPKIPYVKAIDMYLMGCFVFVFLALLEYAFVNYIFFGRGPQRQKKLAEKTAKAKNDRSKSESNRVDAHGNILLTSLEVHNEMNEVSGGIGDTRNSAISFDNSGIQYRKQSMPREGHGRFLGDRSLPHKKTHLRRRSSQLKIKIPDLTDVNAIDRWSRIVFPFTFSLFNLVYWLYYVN
The test is described as follows: Inhibition of [3H]-Ro- 15-1788 binding to human GABA-A receptor alpha-1-beta-3-gamma-2 expressed in L(tk-) cells. The test is classed as cell-based.

The target of test [2] is T2, GABA-A receptor; alpha-3/beta-3/gamma-2 (Homo sapiens, UniProt P18507+P28472+P34903).
T2 sequence (P18507 whole entry): T1 sequence (P18507 whole entry)
T2 sequence (P28472 whole entry): T1 sequence (P28472 whole entry)
T2 sequence (P34903 whole entry): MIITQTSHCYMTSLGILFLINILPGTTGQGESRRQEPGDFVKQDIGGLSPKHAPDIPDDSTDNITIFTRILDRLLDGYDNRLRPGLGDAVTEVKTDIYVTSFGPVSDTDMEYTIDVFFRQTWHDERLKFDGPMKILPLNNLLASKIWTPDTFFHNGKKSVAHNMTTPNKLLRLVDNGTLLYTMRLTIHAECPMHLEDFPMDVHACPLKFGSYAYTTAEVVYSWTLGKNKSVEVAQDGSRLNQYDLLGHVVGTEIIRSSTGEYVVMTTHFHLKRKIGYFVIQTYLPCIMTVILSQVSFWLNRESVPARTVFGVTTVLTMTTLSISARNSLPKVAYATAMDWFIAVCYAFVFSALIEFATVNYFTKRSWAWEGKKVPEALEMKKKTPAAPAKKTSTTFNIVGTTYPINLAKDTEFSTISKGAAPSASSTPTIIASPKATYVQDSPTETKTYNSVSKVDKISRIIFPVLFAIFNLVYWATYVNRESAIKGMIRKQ
The test is described as follows: Inhibition of [3H]-Ro- 15-1788 binding to human GABA-A receptor alpha-3-beta-3-gamma-2 expressed in L(tk-) cells. The test is classed as cell-based.

The target in test [3] is T3, GABA-A receptor; alpha-1/beta-3/gamma-2 (Homo sapiens) (UniProt P14867+P18507+P28472). The test is described as follows: Effective current to modulate GABA-mediated chloride ion flux through GABA-A receptor alpha-1-beta-3-gamma-2 expressed in L(tk-) cells. The test is classed as functional, cell-based.
In test [4] the target is T4, GABA-A receptor; alpha-3/beta-3/gamma-2 (Homo sapiens) (UniProt P18507+P28472+P34903). The test is described as follows: Effective current to modulate GABA-mediated chloride ion flux through GABA-A receptor alpha-3-beta-3-gamma-2 expressed in L(tk-) cells. The test is classed as functional, cell-based.
Test [5] concerns the target T3, GABA-A receptor; alpha-1/beta-3/gamma-2 (Homo sapiens). The test is described as follows: Effective concentration to modulate GABA-mediated chloride ion flux through GABA-A receptor alpha-1-beta-3-gamma-2 expressed in L(tk-) cells. The test is classed as functional, cell-based.
The target of test [6] is T4, GABA-A receptor; alpha-3/beta-3/gamma-2 (Homo sapiens). The test is described as follows: Effective concentration to modulate GABA-mediated chloride ion flux through GABA-A receptor alpha-3-beta-3-gamma-2 expressed in L(tk-) cells. The test is classed as functional, cell-based.

Each structure is given as a SMILES string.

Regarding `O=c1c2c[nH]c3c(c-2nn1-c1ccc(Cl)cc1)CCCC3`, the values for the Ki in test [1] and in test [2] were 0.29 nM and 1.5 nM, respectively. Moreover, the Efficacy in test [3] was 0.21; in test [4] it was 0.45; in test [5] it was 0.14; in test [6], 0.38.

In general, Ki refers to the equilibrium dissociation constant of an inhibitor or competing ligand from its target. The low end stands for a stronger hold on the target, the high end for a looser hold on the target.
